Laboratory results: publication PMC3969223, “Characterization of WZ4003 and HTH-01-015 as selective inhibitors of the LKB1-tumour-suppressor-activated NUAK kinases” (Biochemical Journal, 2013)

What was measured:
Assay in all cases: Kinase profiling
Assay type in all cases: biochemical
Conditions in all cases: 0.1 or 1 μM inhibitor; mean of triplicate
[1] = target: p38α MAPK (Homo sapiens, UniProt Q16539)
Procedure, shortened: (§1)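 140-kinase in vitro panel; compound 0.1 or 1 μM; triplicate reactions. Output given as remaining activity (% of DMSO control) ±S.D.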

[2] = target: TBK1 (Homo sapiens, UniProt Q9UHD2)
TBK1, sequence (Q9UHD2 whole entry): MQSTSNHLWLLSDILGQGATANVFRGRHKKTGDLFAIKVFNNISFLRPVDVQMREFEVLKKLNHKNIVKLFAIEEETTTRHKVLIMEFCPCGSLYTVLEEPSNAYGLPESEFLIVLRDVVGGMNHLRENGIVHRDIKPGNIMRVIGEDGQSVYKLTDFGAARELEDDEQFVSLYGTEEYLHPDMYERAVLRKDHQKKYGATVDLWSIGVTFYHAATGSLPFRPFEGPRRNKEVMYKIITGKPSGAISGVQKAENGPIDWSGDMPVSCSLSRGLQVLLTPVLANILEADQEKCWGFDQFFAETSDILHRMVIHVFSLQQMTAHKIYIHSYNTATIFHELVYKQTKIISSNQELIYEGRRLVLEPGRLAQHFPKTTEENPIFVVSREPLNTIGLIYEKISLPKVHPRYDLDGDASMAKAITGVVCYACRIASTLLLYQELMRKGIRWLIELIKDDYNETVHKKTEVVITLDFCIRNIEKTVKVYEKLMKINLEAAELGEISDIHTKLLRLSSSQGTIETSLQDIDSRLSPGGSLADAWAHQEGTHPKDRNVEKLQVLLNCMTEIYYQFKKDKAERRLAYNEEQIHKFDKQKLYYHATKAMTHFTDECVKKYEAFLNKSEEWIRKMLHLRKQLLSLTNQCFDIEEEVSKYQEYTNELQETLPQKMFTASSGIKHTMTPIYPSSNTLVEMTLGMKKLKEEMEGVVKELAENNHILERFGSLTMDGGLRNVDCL
Procedure, shortened: as §1

[3] = target: TAK1 (Homo sapiens, UniProt O43318)
Procedure, shortened: as §1

[4] = target: CHK1 (Homo sapiens, UniProt O14757)
CHK1, sequence (O14757 whole entry): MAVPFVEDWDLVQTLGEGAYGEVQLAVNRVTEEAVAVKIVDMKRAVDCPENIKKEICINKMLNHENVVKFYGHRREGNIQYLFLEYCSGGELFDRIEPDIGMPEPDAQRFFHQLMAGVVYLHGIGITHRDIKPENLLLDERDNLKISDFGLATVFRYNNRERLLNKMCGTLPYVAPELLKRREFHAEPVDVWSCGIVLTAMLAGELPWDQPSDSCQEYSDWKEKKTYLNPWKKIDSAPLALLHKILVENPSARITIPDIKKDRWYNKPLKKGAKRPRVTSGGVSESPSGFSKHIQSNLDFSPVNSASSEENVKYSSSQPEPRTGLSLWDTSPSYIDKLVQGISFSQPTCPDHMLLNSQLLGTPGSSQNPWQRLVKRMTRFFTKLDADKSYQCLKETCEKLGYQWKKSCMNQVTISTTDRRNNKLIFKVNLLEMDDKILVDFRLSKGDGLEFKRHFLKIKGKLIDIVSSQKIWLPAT
Procedure, shortened: as §1

[5] = target: ERK1 (Homo sapiens, UniProt P27361)
Procedure, shortened: as §1

[6] = target: MST2 (Homo sapiens, UniProt Q13188)
Procedure, shortened: as §1

[7] = target: JNK3 (Homo sapiens, UniProt P53779)
JNK3, sequence (P53779 whole entry): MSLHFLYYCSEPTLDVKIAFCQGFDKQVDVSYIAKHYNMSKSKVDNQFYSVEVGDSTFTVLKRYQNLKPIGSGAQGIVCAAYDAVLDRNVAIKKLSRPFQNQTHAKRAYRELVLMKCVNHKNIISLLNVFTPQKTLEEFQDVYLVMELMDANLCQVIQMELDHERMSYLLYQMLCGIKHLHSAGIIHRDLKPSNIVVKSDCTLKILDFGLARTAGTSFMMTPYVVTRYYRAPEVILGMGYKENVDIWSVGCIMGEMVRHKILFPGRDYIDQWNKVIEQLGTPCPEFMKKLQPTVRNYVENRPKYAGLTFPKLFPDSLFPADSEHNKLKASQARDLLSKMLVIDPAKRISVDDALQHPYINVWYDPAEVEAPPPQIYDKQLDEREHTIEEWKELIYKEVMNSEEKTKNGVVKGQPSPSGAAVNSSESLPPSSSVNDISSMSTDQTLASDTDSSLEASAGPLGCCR
Procedure, shortened: as §1

[8] = target: IRAK1 (Homo sapiens, UniProt P51617)
Procedure, shortened: as §1

[9] = target: STK33 (Homo sapiens, UniProt Q9BYT3)
Procedure, shortened: as §1

[10] = target: CLK2 (Homo sapiens, UniProt P49760)
Procedure, shortened: as §1

[11] = target: YES1 (Homo sapiens, UniProt P07947)
Procedure, shortened: as §1

[12] = target: PKD1 (Homo sapiens, UniProt Q15139)
Procedure, shortened: as §1

[13] = target: S6K1 (Homo sapiens, UniProt P23443)
Procedure, shortened: as §1

[14] = target: BRK (Homo sapiens, UniProt Q13882)
Procedure, shortened: as §1

[15] = target: SYK (Homo sapiens, UniProt P43405)
Procedure, shortened: as §1

[16] = target: MLK3 (Homo sapiens, UniProt Q16584)
Procedure, shortened: as §1

[17] = target: WNK1 (Homo sapiens, UniProt Q9H4A3)
Procedure, shortened: as §1

[18] = target: TSSK1 (Homo sapiens, UniProt Q9BXA7)
[19] = target: CAMK1 (Homo sapiens, UniProt Q14012)
Procedure, shortened: as §1

[20] = target: PDGFRA (Homo sapiens, UniProt P16234)
Procedure, shortened: as §1

[21] = target: SGK1 (Homo sapiens, UniProt O00141)
Procedure, shortened: as §1

[22] = target: MST3 (Homo sapiens, UniProt Q9Y6E0)
MST3, sequence (Q9Y6E0 whole entry): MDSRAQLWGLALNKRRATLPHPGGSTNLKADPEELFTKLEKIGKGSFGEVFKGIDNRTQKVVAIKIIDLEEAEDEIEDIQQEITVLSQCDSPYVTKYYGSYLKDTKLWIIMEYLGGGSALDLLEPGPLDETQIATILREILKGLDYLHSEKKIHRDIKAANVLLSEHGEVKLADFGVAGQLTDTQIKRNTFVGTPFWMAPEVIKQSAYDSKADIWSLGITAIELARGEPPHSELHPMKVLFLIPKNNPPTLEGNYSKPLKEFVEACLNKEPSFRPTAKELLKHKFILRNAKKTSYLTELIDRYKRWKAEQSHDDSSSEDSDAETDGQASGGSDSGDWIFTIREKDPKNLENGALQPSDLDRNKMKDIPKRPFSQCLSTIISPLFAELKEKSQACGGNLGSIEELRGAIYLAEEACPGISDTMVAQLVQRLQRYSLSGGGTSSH

[23] = target: PIM3 (Homo sapiens, UniProt Q86V86)
Procedure, shortened: as §1

[24] = target: TTBK2 (Homo sapiens, UniProt Q6IQ55)
TTBK2, sequence (Q6IQ55 whole entry): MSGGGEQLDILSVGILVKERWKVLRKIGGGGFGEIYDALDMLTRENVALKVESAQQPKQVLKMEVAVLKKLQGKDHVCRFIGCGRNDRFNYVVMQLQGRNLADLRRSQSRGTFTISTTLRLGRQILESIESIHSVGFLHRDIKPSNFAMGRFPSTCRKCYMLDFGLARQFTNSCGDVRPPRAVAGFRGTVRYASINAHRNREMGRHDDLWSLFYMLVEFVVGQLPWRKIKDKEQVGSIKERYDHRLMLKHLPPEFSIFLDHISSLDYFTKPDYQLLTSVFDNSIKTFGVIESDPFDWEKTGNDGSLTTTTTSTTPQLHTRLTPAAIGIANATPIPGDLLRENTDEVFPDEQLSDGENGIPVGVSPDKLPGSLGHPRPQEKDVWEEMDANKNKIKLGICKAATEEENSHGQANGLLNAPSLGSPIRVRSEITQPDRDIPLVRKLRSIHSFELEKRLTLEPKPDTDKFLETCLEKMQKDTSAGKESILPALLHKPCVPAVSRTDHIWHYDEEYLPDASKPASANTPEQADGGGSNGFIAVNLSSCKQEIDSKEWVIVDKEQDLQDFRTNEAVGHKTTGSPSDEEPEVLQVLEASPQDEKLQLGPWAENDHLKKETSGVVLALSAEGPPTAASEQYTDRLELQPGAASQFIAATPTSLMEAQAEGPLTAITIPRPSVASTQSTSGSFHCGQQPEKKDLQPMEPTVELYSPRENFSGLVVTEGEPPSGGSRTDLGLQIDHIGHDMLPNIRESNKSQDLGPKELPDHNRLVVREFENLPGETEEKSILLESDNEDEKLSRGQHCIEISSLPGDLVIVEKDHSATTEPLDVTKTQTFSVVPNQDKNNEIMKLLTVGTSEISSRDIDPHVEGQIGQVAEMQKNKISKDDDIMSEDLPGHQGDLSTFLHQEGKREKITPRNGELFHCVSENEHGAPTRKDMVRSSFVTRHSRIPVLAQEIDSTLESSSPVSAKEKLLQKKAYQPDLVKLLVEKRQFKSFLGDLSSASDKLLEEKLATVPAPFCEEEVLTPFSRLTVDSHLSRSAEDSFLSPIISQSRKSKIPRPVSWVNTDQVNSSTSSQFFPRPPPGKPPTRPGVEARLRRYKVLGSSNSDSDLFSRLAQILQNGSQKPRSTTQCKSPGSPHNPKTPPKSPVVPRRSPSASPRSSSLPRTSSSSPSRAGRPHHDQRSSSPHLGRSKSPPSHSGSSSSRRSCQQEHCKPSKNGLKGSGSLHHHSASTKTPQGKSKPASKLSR
Procedure, shortened: as §1

[25] = target: PAK5 (Homo sapiens, UniProt Q9P286)
PAK5, sequence (Q9P286 whole entry): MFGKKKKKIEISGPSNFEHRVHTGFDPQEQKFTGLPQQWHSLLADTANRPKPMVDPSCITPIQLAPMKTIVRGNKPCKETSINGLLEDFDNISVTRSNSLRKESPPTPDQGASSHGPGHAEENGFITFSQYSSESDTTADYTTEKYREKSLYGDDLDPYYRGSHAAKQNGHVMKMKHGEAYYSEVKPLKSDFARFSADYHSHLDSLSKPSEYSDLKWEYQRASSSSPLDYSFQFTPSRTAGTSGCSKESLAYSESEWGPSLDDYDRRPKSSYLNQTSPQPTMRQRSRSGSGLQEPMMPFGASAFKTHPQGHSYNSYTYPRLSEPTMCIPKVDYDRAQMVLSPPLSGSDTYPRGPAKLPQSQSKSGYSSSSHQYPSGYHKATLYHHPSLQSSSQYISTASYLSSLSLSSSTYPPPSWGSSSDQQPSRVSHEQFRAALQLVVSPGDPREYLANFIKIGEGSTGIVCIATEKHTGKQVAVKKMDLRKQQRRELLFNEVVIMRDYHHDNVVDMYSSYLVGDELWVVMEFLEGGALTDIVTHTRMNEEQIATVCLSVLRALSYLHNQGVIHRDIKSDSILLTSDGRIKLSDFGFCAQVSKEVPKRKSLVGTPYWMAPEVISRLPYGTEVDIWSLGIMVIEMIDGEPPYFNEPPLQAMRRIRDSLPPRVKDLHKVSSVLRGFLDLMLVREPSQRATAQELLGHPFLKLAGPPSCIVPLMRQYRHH
Procedure, shortened: as §1

[26] = target: ZAP70 (Homo sapiens, UniProt P43403)
Procedure, shortened: as §1

[27] = target: SRPK1 (Homo sapiens, UniProt Q96SB4)
Procedure, shortened: as §1

[28] = target: DYRK2 (Homo sapiens, UniProt Q92630)
Procedure, shortened: as §1

[29] = target: ERK8 (Homo sapiens, UniProt Q8TD08)
Procedure, shortened: as §1

[30] = target: IR (Homo sapiens, UniProt P06213)
Procedure, shortened: as §1

[31] = target: HER4 (Homo sapiens, UniProt Q15303)
Procedure, shortened: as §1

[32] = target: MARK4 (Homo sapiens, UniProt Q96L34)
[33] = target: RSK1 (Homo sapiens, UniProt Q15418)
Procedure, shortened: as §1

[34] = target: CDK9-Cyc T1 (Homo sapiens, UniProt P50750)
[35] = target: DYRK3 (Homo sapiens, UniProt O43781)
Procedure, shortened: as §1

[36] = target: OSR1 (Homo sapiens, UniProt O95747)
Procedure, shortened: as §1

[37] = target: PKA (Homo sapiens, UniProt P17612)
Procedure, shortened: as §1

[38] = target: DDR2 (Homo sapiens, UniProt Q16832)
Procedure, shortened: as §1

[39] = target: MNK2 (Homo sapiens, UniProt Q9HBH9)
Procedure, shortened: as §1

[40] = target: BRSK2 (Homo sapiens, UniProt Q8IWQ3)
Procedure, shortened: as §1

[41] = target: PRK2 (Homo sapiens, UniProt Q16513)
[42] = target: MSK1 (Homo sapiens, UniProt O75582)
Procedure, shortened: as §1

[43] = target: PLK1 (Homo sapiens, UniProt P53350)
PLK1, sequence (P53350 whole entry): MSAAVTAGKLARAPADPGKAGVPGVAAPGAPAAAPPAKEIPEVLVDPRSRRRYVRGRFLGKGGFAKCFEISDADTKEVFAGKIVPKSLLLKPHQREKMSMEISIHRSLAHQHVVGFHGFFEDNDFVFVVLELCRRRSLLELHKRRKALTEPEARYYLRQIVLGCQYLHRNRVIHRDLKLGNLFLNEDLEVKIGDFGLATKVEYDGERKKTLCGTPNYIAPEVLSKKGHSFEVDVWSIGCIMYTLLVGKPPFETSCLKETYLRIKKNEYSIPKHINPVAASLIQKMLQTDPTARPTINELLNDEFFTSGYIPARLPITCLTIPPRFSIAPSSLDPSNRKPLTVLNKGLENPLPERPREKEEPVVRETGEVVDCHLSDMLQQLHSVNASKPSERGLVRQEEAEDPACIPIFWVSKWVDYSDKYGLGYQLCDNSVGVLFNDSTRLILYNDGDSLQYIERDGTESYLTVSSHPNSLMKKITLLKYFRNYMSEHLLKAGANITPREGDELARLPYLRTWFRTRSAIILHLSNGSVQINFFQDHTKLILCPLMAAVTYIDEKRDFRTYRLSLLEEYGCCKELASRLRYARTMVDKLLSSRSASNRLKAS

p38α MAPK, sequence (Q16539 whole entry): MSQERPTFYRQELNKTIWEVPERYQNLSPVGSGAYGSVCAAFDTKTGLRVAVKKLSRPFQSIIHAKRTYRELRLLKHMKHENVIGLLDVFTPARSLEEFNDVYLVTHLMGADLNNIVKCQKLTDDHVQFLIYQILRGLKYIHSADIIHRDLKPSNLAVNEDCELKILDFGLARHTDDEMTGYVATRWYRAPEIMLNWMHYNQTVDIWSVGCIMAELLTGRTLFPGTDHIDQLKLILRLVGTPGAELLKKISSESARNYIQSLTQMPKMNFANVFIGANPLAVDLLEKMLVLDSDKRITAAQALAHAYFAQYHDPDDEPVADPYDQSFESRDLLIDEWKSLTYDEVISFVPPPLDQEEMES

Structure (SMILES): Cc1nc(Nc2cnn(C3CCNCC3)c2)nc2c1N(C)C(=O)c1cc3ccccc3cc1N2C [HTH-01-015]
- p38α MAPK activity, percentage of DMSO control [1]: 118 percentage
- TBK1 activity, percentage of DMSO control [2]: 112 percentage
- TAK1 activity, percentage of DMSO control [3]: 109 percentage
- CHK1 activity, percentage of DMSO control [4]: 106 percentage
- ERK1 activity, percentage of DMSO control [5]: 83 percentage
- MST2 activity, percentage of DMSO control [6]: 118 percentage
- JNK3 activity, percentage of DMSO control [7]: 101 percentage
- IRAK1 activity, percentage of DMSO control [8]: 103 percentage
- STK33 activity, percentage of DMSO control [9]: 93 percentage
- CLK2 activity, percentage of DMSO control [10]: 54 percentage
- YES1 activity, percentage of DMSO control [11]: 76 percentage
- PKD1 activity, percentage of DMSO control [12]: 94 percentage
- S6K1 activity, percentage of DMSO control [13]: 85 percentage
- BRK activity, percentage of DMSO control [14]: 96 percentage
- SYK activity, percentage of DMSO control [15]: 125 percentage
- MLK3 activity, percentage of DMSO control [16]: 94 percentage
- WNK1 activity, percentage of DMSO control [17]: 99 percentage
- TSSK1 activity, percentage of DMSO control [18]: 95 percentage
- CAMK1 activity, percentage of DMSO control [19]: 92 percentage
- PDGFRA activity, percentage of DMSO control [20]: 109 percentage
- SGK1 activity, percentage of DMSO control [21]: 97 percentage
- MST3 activity, percentage of DMSO control [22]: 111 percentage
- PIM3 activity, percentage of DMSO control [23]: 97 percentage
- TTBK2 activity, percentage of DMSO control [24]: 102 percentage
- PAK5 activity, percentage of DMSO control [25]: 95 percentage
- ZAP70 activity, percentage of DMSO control [26]: 103 percentage
- SRPK1 activity, percentage of DMSO control [27]: 103 percentage
- DYRK2 activity, percentage of DMSO control [28]: 113 percentage
- ERK8 activity, percentage of DMSO control [29]: 98 percentage
- IR activity, percentage of DMSO control [30]: 105 percentage
- HER4 activity, percentage of DMSO control [31]: 102 percentage
- MARK4 activity, percentage of DMSO control [32]: 75 percentage
- RSK1 activity, percentage of DMSO control [33]: 93 percentage
- CDK9-Cyc T1 activity, percentage of DMSO control [34]: 68 percentage
- DYRK3 activity, percentage of DMSO control [35]: 98 percentage
- OSR1 activity, percentage of DMSO control [36]: 107 percentage
- PKA activity, percentage of DMSO control [37]: 101 percentage
- DDR2 activity, percentage of DMSO control [38]: 91 percentage
- MNK2 activity, percentage of DMSO control [39]: 106 percentage
- BRSK2 activity, percentage of DMSO control [40]: 97 percentage
- PRK2 activity, percentage of DMSO control [41]: 112 percentage
- MSK1 activity, percentage of DMSO control [42]: 111 percentage
- PLK1 activity, percentage of DMSO control [43]: 98 percentage
